{"source": "patent US9732032B2", "about": "“3-aminocyclopentane carboxamide derivatives” (Merck Patent GmbH, priority 2012, dated 2017)", "data": [{"target": "T1, human recombinant full-length fatty acid synthase (FASN) (Homo sapiens, UniProt P49327)", "T1 construct": "human recombinant full-length fatty acid synthase; made in house; host or cells: SF9 cells", "T1 sequence (P49327 whole entry)": "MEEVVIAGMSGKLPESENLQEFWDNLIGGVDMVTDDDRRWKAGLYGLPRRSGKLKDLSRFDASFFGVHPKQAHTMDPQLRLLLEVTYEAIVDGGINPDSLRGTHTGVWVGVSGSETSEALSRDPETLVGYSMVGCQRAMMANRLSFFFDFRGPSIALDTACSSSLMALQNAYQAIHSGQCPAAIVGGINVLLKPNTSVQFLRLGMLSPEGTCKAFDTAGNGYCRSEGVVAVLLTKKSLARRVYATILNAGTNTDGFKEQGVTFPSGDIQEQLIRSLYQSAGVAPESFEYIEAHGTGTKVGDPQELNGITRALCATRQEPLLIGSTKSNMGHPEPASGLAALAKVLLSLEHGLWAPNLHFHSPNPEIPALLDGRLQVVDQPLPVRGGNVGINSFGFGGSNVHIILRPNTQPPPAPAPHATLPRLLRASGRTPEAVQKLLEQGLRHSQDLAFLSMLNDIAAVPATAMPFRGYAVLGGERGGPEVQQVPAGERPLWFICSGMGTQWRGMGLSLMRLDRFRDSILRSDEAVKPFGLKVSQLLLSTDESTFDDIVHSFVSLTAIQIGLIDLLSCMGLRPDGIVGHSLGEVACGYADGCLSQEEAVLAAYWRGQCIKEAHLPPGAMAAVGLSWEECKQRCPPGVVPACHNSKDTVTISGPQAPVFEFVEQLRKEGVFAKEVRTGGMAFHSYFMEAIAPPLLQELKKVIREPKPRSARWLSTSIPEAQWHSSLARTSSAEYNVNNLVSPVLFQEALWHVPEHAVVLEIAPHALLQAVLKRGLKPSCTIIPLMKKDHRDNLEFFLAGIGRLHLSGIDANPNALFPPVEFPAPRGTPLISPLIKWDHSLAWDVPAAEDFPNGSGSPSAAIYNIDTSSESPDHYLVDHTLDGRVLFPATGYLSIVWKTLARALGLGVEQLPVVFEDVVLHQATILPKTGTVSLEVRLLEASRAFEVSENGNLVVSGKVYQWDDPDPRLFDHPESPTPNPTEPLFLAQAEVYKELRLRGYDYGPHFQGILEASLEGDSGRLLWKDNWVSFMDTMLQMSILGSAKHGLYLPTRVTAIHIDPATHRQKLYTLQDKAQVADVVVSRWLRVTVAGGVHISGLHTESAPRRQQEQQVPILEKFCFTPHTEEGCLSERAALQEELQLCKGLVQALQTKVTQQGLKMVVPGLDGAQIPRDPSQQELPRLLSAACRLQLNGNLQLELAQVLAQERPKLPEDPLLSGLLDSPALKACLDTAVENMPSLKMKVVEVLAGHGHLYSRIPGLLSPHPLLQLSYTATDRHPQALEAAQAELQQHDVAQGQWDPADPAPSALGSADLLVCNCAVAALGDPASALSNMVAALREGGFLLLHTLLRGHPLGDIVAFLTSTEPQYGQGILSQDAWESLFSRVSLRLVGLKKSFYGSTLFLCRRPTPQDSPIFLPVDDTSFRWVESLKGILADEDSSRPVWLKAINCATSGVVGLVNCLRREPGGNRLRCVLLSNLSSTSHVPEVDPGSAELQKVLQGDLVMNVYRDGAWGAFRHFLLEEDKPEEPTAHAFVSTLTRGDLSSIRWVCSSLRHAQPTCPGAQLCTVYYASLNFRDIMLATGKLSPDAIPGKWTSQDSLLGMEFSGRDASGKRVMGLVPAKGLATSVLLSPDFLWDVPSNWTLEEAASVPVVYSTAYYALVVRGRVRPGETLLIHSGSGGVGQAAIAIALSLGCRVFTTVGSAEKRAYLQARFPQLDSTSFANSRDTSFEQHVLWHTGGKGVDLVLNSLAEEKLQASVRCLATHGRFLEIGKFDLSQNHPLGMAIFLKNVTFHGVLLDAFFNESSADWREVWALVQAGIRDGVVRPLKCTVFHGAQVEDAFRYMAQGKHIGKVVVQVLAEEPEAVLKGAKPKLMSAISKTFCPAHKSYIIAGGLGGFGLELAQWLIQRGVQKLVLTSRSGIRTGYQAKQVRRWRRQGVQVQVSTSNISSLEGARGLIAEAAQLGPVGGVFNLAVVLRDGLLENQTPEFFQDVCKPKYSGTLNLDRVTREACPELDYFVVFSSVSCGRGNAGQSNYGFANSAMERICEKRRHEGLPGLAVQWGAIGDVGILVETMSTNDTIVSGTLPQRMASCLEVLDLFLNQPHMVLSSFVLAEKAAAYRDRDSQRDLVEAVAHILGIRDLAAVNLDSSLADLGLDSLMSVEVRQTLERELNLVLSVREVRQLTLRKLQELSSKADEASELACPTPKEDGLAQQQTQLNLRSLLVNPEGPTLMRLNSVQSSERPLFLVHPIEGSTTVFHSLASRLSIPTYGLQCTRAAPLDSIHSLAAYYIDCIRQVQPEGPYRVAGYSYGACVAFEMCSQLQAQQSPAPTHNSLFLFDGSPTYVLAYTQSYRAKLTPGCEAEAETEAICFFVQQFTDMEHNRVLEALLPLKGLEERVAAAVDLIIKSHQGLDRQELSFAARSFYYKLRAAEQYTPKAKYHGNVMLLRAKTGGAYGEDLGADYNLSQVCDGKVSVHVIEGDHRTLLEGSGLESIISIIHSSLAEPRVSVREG", "assay": "Biochemical activity testing of human fatty acid synthase FASN (NADPH fluorescence intensity assay)", "conditions": "NADPH fluorescence decrease (ex 340 nm / em 460 nm), 30 minutes at room temperature, read-out: IC50 FASN (enzyme assay)", "description": "aq (aqueous), h (hour), g (gram), L (liter), mg (milligram), MHz (Megahertz), (melting point), eq (equivalent), mL (milliliter), L (microliter), ACN (acetonitrile), AcOH (acetic acid), CDCl3 (deuterated chloroform), CD3OD (deuterated methanol), CH3CN (acetonitrile), c-hex (cyclohexane), DCC (dicyclohexyl carbodiimide), DCM (dichloromethane), DIC (diisopropyl carbodiimide), DIEA (diisopropylethyl-amine), DMF (dimethylformamide), DMSO (dimethylsulfoxide), DMSO-d6 (deuterated dimethylsulfoxide), EDC (1-(3-dimethyl-amino-propyl)-3-ethylcarbodiimide), ESI (Electro-spray ionization), EtOAc (ethyl acetate), Et2O (diethyl ether), EtOH (ethanol), HATU (dimethylamino-([1,2,3]triazolo[4,5-b]pyridin-3-yloxy)-methylene]-dimethylammonium hexafluorophosphate), HPLC (High Performance Liquid Chromatography), i-PrOH (2-propanol), K2CO3 (potassium carbonate), LC (Liquid Chromatography), MeOH (methanol), MgSO4 (magnesium sulfate), MS (mass spectrometry), MTBE (Methyl tert-butyl ether), NaHCO3 (sodium bicarbonate), NaBH4 (sodium borohydride), NMM (N-methyl morpholine), NMR (Nuclear Magnetic Resonance), PyBOP (benzotriazole-1-yl-oxy-trispyrrolidino-phosphonium hexafluorophosphate), RT (room temperature), Rt (retention time), SPE (solid phase extraction), TBTU (2-(1-H-benzotriazole-1-yl)-1,1,3,3-tetramethyluromium tetrafluoro borate), TEA (triethylamine), TFA (trifluoroacetic acid), THF (tetrahydrofuran), TLC (Thin Layer Chromatography), UV (Ultraviolet). Description of the In Vitro Assays Abbreviations: GST=Glutathione-S-transferase FRET=Fluorescence resonance energy transfer HTRF®=(homogenous time resolved fluorescence) HEPES=4-(2-hydroxyethyl)-1-piperazine ethanesulfonic acid buffer DTT=Dithiothreitol BSA=bovine serum albumin CHAPS=detergent; CHAPS=3[(3-cholamidopropyl)dimethylammonio]-1-propanesulfonate Biochemical Activity Testing of Human Fatty Acid Synthase FASN\nFatty acid synthase FASN is a multifunctional enzyme with seven catalytic activities thereby synthesising long chain fatty acids especially palmitoyl-CoA in the presence of co-factor NADPH starting from the substrates acetyl-CoA and malonyl-CoA. The reductive synthesis is realized by the oxidation of NADPH to NADP. Since NADPH has a high fluorescence intensity quantum yield compared to NADP with excitation at 340 nm and emission at 460 nm, the reaction can be monitored via the decrease in fluorescence intensity. The biochemical FASN activity testing was performed as 384 well two-time-point kinetic fluorescence intensity assay format in Greiner low volume medium binding 384-well black microtiter plates in a total assay volume of 8 μl and was used for high throughput screen. In each well 3 μl 40 nM human recombinant full-length fatty acid synthase (produced in-house in SF9 cells) were dispensed in the following assay buffer: 50 mM potassium phosphate buffer pH 7.0, 0.005% (w/v) BSA, 2 mM Glutathione, 0.02% Tween-20. Then 2 μl of 200 μM NADPH in assay buffer were added, followed by the addition of the test compounds in 10 dilution concentrations starting with 30 μM (final concentration) to get a final DMSO content of 1% (v/v). The mixture was incubated for at least 15 min at room temperature. After the pre-incubation the enzymatic reaction was started by the addition of 2 μl substrate solution (80 μM acetyl-CoA, 240 μM malonyl-CoA). A first fluorescence intensity measurement (time point one) was performed with an Envision multimode reader (Perkin Elmer LAS Germany GmbH) at excitation wavelength 340 nm (lamp mode) and emission wavelength 460 nm. The reaction was incubated for 30 minutes at room temperature. After this the fluorescence intensity was measured again in the Envision using the same parameters as described above (second time point measurement). The data were analysed by subtracting the first time point measurement value from the second time point measurement value (after the enzymatic reaction). The differences of the emission signals were determined. […]", "units": {"IC50": "µM"}, "values": [{"smiles": "C[C@H](CO)NC(=O)[C@H]1CC[C@@H](N(C)C(=O)c2ccc(-c3nc4ccccc4o3)cc2)C1", "note": "[Compound A91, 4-benzoxazol-2-yl-N-[(1R,3S)-3-((R)-2-hydroxy-1-methyl-ethylcarbamoyl)-cyclopentyl]-N-methyl-benzamide]", "IC50": "< 0.3"}, {"smiles": "COC[C@H](C)NC(=O)[C@H]1CC[C@@H](N(C)C(=O)c2ccc(-c3nc4ccccc4o3)cc2)C1", "note": "[Compound A92, 4-benzoxazol-2-yl-N-[(1R,3S)-3-((S)-2-methoxy-1-methyl-ethylcarbamoyl)-cyclopentyl]-N-methyl-benzamide]", "IC50": "0.3 to 3"}, {"smiles": "CCNC(=O)[C@H]1CC[C@@H](N(C)C(=O)c2ccc(-c3nc4cc(S(N)(=O)=O)ccc4o3)cc2)C1", "note": "[Compound A93, N-((1R,3S)-3-ethylcarbamoyl-cyclopentyl)-N-methyl-4-(5-sulfamoyl-benzooxazol-2-yl)-benzamide]", "IC50": "3 to 50"}, {"smiles": "CCNC(=O)[C@H]1CC[C@@H](N(C)C(=O)c2ccc(-c3nc4cc(F)cc(F)c4o3)cc2)C1", "note": "[Compound A96, 4-(5,7-difluoro-benzoxazol-2-yl)-N-((1R,3S)-3-ethylcarbamoyl-cyclopentyl)-N-methyl-benzamide]", "IC50": "< 0.3"}, {"smiles": "CCNC(=O)[C@H]1CC[C@@H](N(C)C(=O)c2ccc(-c3nc4ccc(F)cc4o3)cc2)C1", "note": "[Compound A98, N-((1R,3S)-3-ethylcarbamoyl-cyclopentyl)-4-(6-fluoro-benzooxazol-2-yl)-N-methyl-benzamide]", "IC50": "< 0.3"}, {"smiles": "CN(C(=O)c1ccc(-c2nc3ccccc3o2)cc1)[C@@H]1CC[C@H](C(=O)NC(C)(C)CO)C1", "note": "[Compound A99, 4-benzoxazol-2-yl-N-[(1R,3S)-3-(2-hydroxy-1,1-dimethyl-ethylcarbamoyl)-cyclopentyl]-N-methyl-benzamide]", "IC50": "0.3 to 3"}, {"smiles": "CCNC(=O)[C@H]1CC[C@@H](N(C)C(=O)c2ccc(-c3nc4cc(F)c(F)cc4o3)cc2)C1", "note": "[Compound A101, 4-(5,6-difluoro-benzoxazol-2-yl)-N-((1R,3S)-3-ethylcarbamoyl-cyclopentyl)-N-methyl-benzamide]", "IC50": "< 0.3"}, {"smiles": "CCNC(=O)[C@H]1CC[C@@H](N(C)C(=O)c2ccc(-c3cccnc3)cc2)C1", "note": "[Compound A102, N-((1R,3S)-3-ethylcarbamoyl-cyclopentyl)-N-methyl-4-pyridin-3-yl-benzamide]", "IC50": "< 0.3"}, {"smiles": "CCNC(=O)[C@H]1CC[C@@H](N(C)C(=O)c2ccc(-c3ccc(C#N)cc3)cc2)C1", "note": "[Compound A103, 4′-cyano-biphenyl-4-carboxylic acid ((1R,3S)-3-ethylcarbamoyl-cyclopentyl)-methyl-amide]", "IC50": "< 0.3"}, {"smiles": "CCNC(=O)[C@H]1CC[C@@H](N(C)C(=O)c2ccc(-c3ccc(F)cc3)cc2)C1", "note": "[Compound A104, 4′-fluoro-biphenyl-4-carboxylic acid ((1R,3S)-3-ethylcarbamoyl-cyclopentyl)-methyl-amide]", "IC50": "< 0.3"}, {"smiles": "CN(C(=O)c1ccc(-c2nc3ccccc3o2)cc1)[C@@H]1CC[C@H](C(=O)NCCO)C1", "note": "[Compound A106, 4-benzoxazol-2-yl-N-[(1R,3S)-3-(2-hydroxy-ethylcarbamoyl)-cyclopentyl]-N-methyl-benzamide]", "IC50": "< 0.3"}, {"smiles": "CCNC(=O)[C@H]1CC[C@@H](N(C)C(=O)c2ccc(-c3cccc4[nH]ncc34)cc2)C1", "note": "[Compound A107, N-((1R,3S)-3-ethylcarbamoyl-cyclopentyl)-4-(1H-indazol-4-yl)-N-methyl-benzamide]", "IC50": "< 0.3"}, {"smiles": "CN(C(=O)c1ccc(-c2nc3ccccc3o2)cc1)[C@@H]1CC[C@H](C(=O)NC2(CO)CC2)C1", "note": "[Compound A108, 4-benzoxazol-2-yl-N-[(1R,3S)-3-(1-hydroxymethyl-cyclopropylcarbamoyl)-cyclopentyl]-N-methyl-benzamide]", "IC50": "0.3 to 3"}]}]}
